The source of these data is patent US8304445B2, “7-pyrazolyl tetracycline compounds and methods of use thereof” (Paratek Pharmaceuticals, Inc., priority 2001, dated 2012).

Format in all cases: cell-based
Common to all, as to settings: Mueller-Hinton broth, 37° C., 18 h

For experiment [1], the system named is S. aureus ATCC 29213. The experiment can be described thus: MIC, broth microdilution, S. aureus ATCC 29213. How it is done:
(§1) Growth-inhibitory activity was determined on liquid medium by the antibiotic dilution technique using 96-well microtiter system plates containing two-fold dilutions of antibiotic-agent in 0.2 ml. of Mueller-Hinton broth. Plates were inoculated with each test organism to yield a final inoculum of 5×10^5 CFU/ml and were incubated aerobically at 37° C. for 18 h. The MIC was defined as the lowest concentration of antibacterial agent that inhibited development of visible growth in the microdilution wells.
In general terms: Broth dilution looks for growth in wells or tubes with falling amounts of substance.

Experiment [2] has as its system S. aureus GFX01596 Tet R. Briefly: MIC, broth microdilution, S. aureus GFX01596 Tet R. How it is done: as §1
Experiment [3] has as its system S. pneumoniae 157. Briefly: MIC, broth microdilution, S. pneumoniae 157. How it is done: as §1
The test system of experiment [4] is S. pneumoniae GFX01778 Tet R. The experiment can be described thus: MIC, broth microdilution, S. pneumoniae GFX01778 Tet R. How it is done:
as §1

Experiment [5] deals with H. influenzae ATCC 49247. Briefly: MIC, broth microdilution, H. influenzae ATCC 49247. How it is done:
as §1

The test system of experiment [6] is M. catarrhalis ATCC 23246. The experiment can be described thus: MIC, broth microdilution, M. catarrhalis ATCC 23246. How it is done:
as §1

The test system of experiment [7] is E. coli ML 308-225. The experiment can be described thus: MIC, broth microdilution, E. coli ML 308-225. How it is done:
as §1

In brackets after ≈: the same amount, converted by molar mass.

Regarding `CN(C)[C@@H]1C(O)=C(C(N)=O)C(=O)[C@@]2(O)C(O)=C3C(=O)c4c(O)ccc(-n5ccc(C#N)c5)c4C[C@H]3C[C@@H]12` [Example 5, [4S-(4aα,5aαα12aα)]-7-(3-Cyanopyrrol-1-yl)-4-(dimethylamino)-1,4,4a,5,5a,6,11,12a-octahydro-3,10,12,12a-tetrahydroxy-1,11-dioxo-2-naphthacenecarboxamide], the MIC in experiment [1] is 0.015 µg/mL (≈ 0.0297 µM); in experiment [2], 0.5 µg/mL (≈ 0.991 µM); in experiment [3], 0.015 µg/mL (≈ 0.0297 µM); in experiment [4], 2 µg/mL (≈ 3.96 µM); in experiment [5] it was 0.5 µg/mL (≈ 0.991 µM); in experiment [6], 0.001 µg/mL (≈ 0.00198 µM). Moreover, the MIC in experiment [7] stood at 0.5 µg/mL (≈ 0.991 µM).
With `CN(C)[C@@H]1C(O)=C(C(N)=O)C(=O)[C@@]2(O)C(O)=C3C(=O)c4c(O)ccc(-n5ccc(C=O)c5)c4C[C@H]3C[C@@H]12` [Example 3, [4S-(4aα,5aαα,12aα)]-4-(Dimethylamino)-7-(1H-pyrrol-1-yl-3-carboxaldehyde)-1,4,4a,5,5a,6,11,12a-octahydro-3,10,12,12a-tetrahydroxy-1,11-dioxo-2-naphthacenecarboxamide], the MIC in experiment [1] was found to be 0.015 µg/mL (≈ 0.0296 µM); in experiment [2] it was 0.25 µg/mL (≈ 0.493 µM); in experiment [3], 0.015 µg/mL (≈ 0.0296 µM); in experiment [4] it was 2 µg/mL (≈ 3.94 µM); in experiment [5] it was 1 µg/mL (≈ 1.97 µM); in experiment [6], 0.008 µg/mL (≈ 0.0158 µM). In experiment [7], this compound returned an MIC of 0.5 µg/mL (≈ 0.985 µM).
Turning to `CON=Cc1ccn(-c2ccc(O)c3c2C[C@H]2C[C@H]4[C@H](N(C)C)C(O)=C(C(N)=O)C(=O)[C@@]4(O)C(O)=C2C3=O)c1` [Example 6, [4S-(4aα,5aα12aα)]-4-(Dimethylamino)-7-(3-((methyloxymino)methyl)-1H-pyrrol-1-yl)-1,4,4a,5,5a,6,11,12a-octahydro-3,10,12,12a-tetrahydroxy-1,11-dioxo-2-naphthacenecarboxamide], the MIC is 0.12 µg/mL (≈ 0.224 µM) in experiment [1]; 0.5 µg/mL (≈ 0.932 µM) in experiment [2]; 0.06 µg/mL (≈ 0.112 µM) in experiment [3]; 4 µg/mL (≈ 7.46 µM) in experiment [4]; 2 µg/mL (≈ 3.73 µM) in experiment [5]; 0.004 µg/mL (≈ 0.00746 µM) in experiment [6]. In experiment [7], this compound displayed an MIC of 2 µg/mL (≈ 3.73 µM).
Regarding `CN(C)[C@@H]1C(O)=C(C(N)=O)C(=O)[C@@]2(O)C(O)=C3C(=O)c4c(O)ccc(-n5ccc(C=NO)c5)c4C[C@H]3C[C@@H]12` [Example 4, [4S-(4aα,5aαα,12aα)]-4-(Dimethylamino)-7-(3-((hydroxymino)-methyl)-1H-pyrrol-1-yl)-1,4,4a,5,5a,6,11,12a-octahydro-3, 10,12,12a-tetrahydroxy-1,11-dioxo-2-naphthacenecarboxamide], the MIC in experiment [1] turned out to be 0.12 µg/mL (≈ 0.23 µM); in experiment [2], 0.5 µg/mL (≈ 0.957 µM); in experiment [3], 0.03 µg/mL (≈ 0.0574 µM); in experiment [4], 2 µg/mL (≈ 3.83 µM); in experiment [5], 2 µg/mL (≈ 3.83 µM); in experiment [6], 0.03 µg/mL (≈ 0.0574 µM). This compound showed an MIC in experiment [7] of 1 µg/mL (≈ 1.91 µM).
